Results from patent US9120804B2, “8-substituted 2-amino-[1,2,4] triazolo [1, 5-A] pyrazines as Syk tryrosine kinase inhibitors and GCN2 serin kinase inhibitors” (Merck Patent GmbH, priority 2012, dated 2015).

Biological target: T1, SYK (Homo sapiens, UniProt P43405)
T1 construct: 2.5 nM SYK, 400 nM Biotin-Aha-Aha-KEDPDYEWPSAKK
Assay: SYK flash plate assay (enzyme assay)
Format: biochemical
Procedure: The kinase assay is performed either as 384-well Flashplate assay (for e.g. Topcount measurement) or as 384-well Image-Flashplate assay (for LEADseeker measurement).
2.5 nM SYK, 400 nM Biotin-Aha-Aha-KEDPDYEWPSAKK
and 10 μM ATP (spiked with 0.3 μCi 33P-ATP/well) are incubated in a total volume of 50 μl (60 mM Hepes, 10 mM MgCl2, 1.2 mM Dithiothreitol, 0.02% Brij35, 0.1% BSA, pH 7.5) with or without test compound for 1 hours at 30° C. The reaction is stopped with 25 μl 200 mM EDTA. After 30 Min at 30° C. the liquid is removed and each well washed thrice with 100 μl 0.9% sodium chloride solution. Non-specific reaction is determined in presence of […] Staurosporine. Radioactivity is measured with Topcount (when using Flashplates) or with LEADseeker (when using Image-Flashplates) respectively. Results (e.g. IC50-values) are calculated with program tools provided by the IT-department (e.g. Symyx Assay Explorer, Genedata Screener). In Vivo Assays CIA

Row | IC50 | Structure (SMILES)
1 | 300 to 3000 nM | CC1(C)CN(c2nccn3nc(Nc4ccc5c(c4)NC(=O)C5(C)C)nc23)c2cc(Cl)ccc21 [E100, 6-[8-(6-chloro-3,3-dimethyl-2,3-dihydro-indol-1-yl)-[1,2,4]triazolo[1,5-a]pyrazin-2-ylamino]-3,3-dimethyl-1,3-dihydro-indol-2-one]
2 | < 100 nM | CC1(C)C(=O)Nc2cc(Nc3nc4c(N5CCC(O)(C(F)(F)F)CC5)nccn4n3)ccc21 [E70, 6-[8-(4-hydroxy-4-trifluoromethyl-piperidin-1-yl)-[1,2,4]triazolo[1,5-a]pyrazin-2-ylamino]-3,3-dimethyl-1,3-dihydro-indol-2-one]
3 | < 100 nM | CC1(C)C(=O)Nc2cc(Nc3nc4c(N5CCCC5)nccn4n3)ccc21 [E41, 3,3-dimethyl-6-(8-pyrrolidin-1-yl-[1,2,4]triazolo[1,5-a]pyrazin-2-ylamino)-1,3-dihydro-indol-2-one]
4 | < 100 nM | CC1CCC(C)N1c1nccn2nc(Nc3ccc4c(c3)NC(=O)C4(C)C)nc12 (stereo not drawn) [E43, 6-[8-(2,5-dimethyl-pyrrolidin-1-yl)-[1,2,4]triazolo[1,5-a]pyrazin-2-ylamino]-3,3-dimethyl-1,3-dihydro-indol-2-one]
5 | 100 to 300 nM | CN(C)CC1(O)CCCN(c2nccn3nc(Nc4ccc5c(c4)NC(=O)C5(C)C)nc23)CC1 (stereo not drawn) [E138, 6-[8-(4-dimethylaminomethyl-4-hydroxy-azepan-1-yl)-[1,2,4]triazolo[1,5-a]pyrazin-2-ylamino]-3,3-dimethyl-1,3-dihydro-indol-2-one]
6 | < 100 nM | COC(=O)C1CCN(c2nccn3nc(Nc4ccc5c(c4)NC(=O)C5(C)C)nc23)C1 (stereo not drawn) [E2, 1-[2-(3,3-dimethyl-2-oxo-2,3-dihydro-1H-indol-6-ylamino)-[1,2,4]triazolo[1,5-a]pyrazin-8-yl]-pyrrolidine-3-carboxylic acid methyl ester]
7 | 300 to 3000 nM | CC1(C)C(=O)Nc2cc(Nc3nc4c(NCCCN)nccn4n3)ccc21 [E122, 6-[8-(3-amino-propylamino)-[1,2,4]triazolo[1,5-a]pyrazin-2-ylamino]-3,3-dimethyl-1,3-dihydro-indol-2-one]
8 | < 100 nM | CC1(C)C(=O)Nc2cc(Nc3nc4c(N5CCC6(CCNC6)C5)nccn4n3)ccc21 (stereo not drawn) [E87, 6-[8-(2,7-diaza-spiro[4.4]non-2-yl)-[1,2,4]triazolo[1,5-a]pyrazin-2-ylamino]-3,3-dimethyl-1,3-dihydro-indol-2-one]
9 | 3000 to 50000 nM | CC1(C)C(=O)Nc2cc(Nc3nc4c(OC5CCNC5)nccn4n3)ccc21 (stereo not drawn) [E123, 3,3-dimethyl-6-[8-(pyrrolidin-3-yloxy)-[1,2,4]triazolo[1,5-a]pyrazin-2-ylamino]-1,3-dihydro-indol-2-one]
10 | 100 to 300 nM | CC1(C)C(=O)Nc2cc(Nc3nc4c(N5CCC(C(=O)NC6CC6)C5)nccn4n3)ccc21 (stereo not drawn) [E4, 1-[2-(3,3-dimethyl-2-oxo-2,3-dihydro-1H-indol-6-ylamino)-[1,2,4]triazolo[1,5-a]pyrazin-8-yl]-pyrrolidine-3-carboxylic acid cyclopropylamide]
11 | < 100 nM | CC1(C)C(=O)Nc2cc(Nc3nc4c(N5CCC6(CNC(=O)O6)C5)nccn4n3)ccc21 (stereo not drawn) [E112, 3,3-dimethyl-6-[8-(2-oxo-1-oxa-3,7-diaza-spiro[4.4]non-7-yl)-[1,2,4]triazolo[1,5-a]pyrazin-2-ylamino]-1,3-dihydro-indol-2-one]
12 | 300 to 3000 nM | CC1(C)C(=O)Nc2cc(Nc3nc4c(N5C[C@@H](O)C[C@@H]5c5cccc(F)c5)nccn4n3)ccc21 [E62, 6-{8-[(2R,4S)-2-(3-fluoro-phenyl)-4-hydroxy-pyrrolidin-1-yl]-[1,2,4]triazolo[1,5-a]pyrazin-2-ylamino}-3,3-dimethyl-1,3-dihydro-indol-2-one]
13 | < 100 nM | CC1(C)C(=O)Nc2cc(Nc3nc4c(N5CC[C@]6(CCNC6)C5)nccn4n3)ccc21 [E105, 6-[(S)-8-(2,7-diaza-spiro[4.4]non-2-yl)-[1,2,4]triazolo[1,5-a]pyrazin-2-ylamino]-3,3-dimethyl-1,3-dihydro-indol-2-one]
14 | < 100 nM | CC1(C)C(=O)Nc2cc(Nc3nc4c(N5CCc6ccc(C#N)cc65)nccn4n3)ccc21 [E134, 1-[2-(3,3-dimethyl-2-oxo-2,3-dihydro-1H-indol-6-ylamino)-[1,2,4]triazolo[1,5-a]pyrazin-8-yl]-2,3-dihydro-1H-indole-6-carbonitrile]
15 | < 100 nM | CC1(C)CC(=O)Nc2cc(Nc3nc4c(N5CC[C@]6(CC(=O)NC6=O)C5)nccn4n3)ccc21 [E49, (S)-7-[2-(4,4-dimethyl-2-oxo-1,2,3,4-tetrahydro-quinolin-7-ylamino)-[1,2,4]triazolo[1,5-a]pyrazin-8-yl]-2,7-diaza-spiro[4.4]nonane-1,3-dione]
16 | 3000 to 50000 nM | CC1(C)C(=O)Nc2cc(Nc3nc4c(N5C[C@H](OC=O)C[C@@H]5c5ccccc5C(F)(F)F)nccn4n3)ccc21 [E85, formic acid (3R,5R)-1-[2-(3,3-dimethyl-2-oxo-2,3-dihydro-1H-indol-6-ylamino)-[1,2,4]triazolo[1,5-a]pyrazin-8-yl]-5-(2-trifluoromethyl-phenyl)-pyrrolidin-3-yl ester]
17 | < 100 nM | CC1(C)CC(=O)Nc2cc(Nc3nc4c(N5CCC6(CC5)CNC(=O)O6)nccn4n3)ccc21 [E46, 4,4-dimethyl-7-[8-(2-oxo-1-oxa-3,8-diaza-spiro[4.5]dec-8-yl)-[1,2,4]triazolo[1,5-a]pyrazin-2-ylamino]-3,4-dihydro-1H-quinolin-2-one]
18 | < 100 nM | CC1(C)C(=O)Nc2cc(Nc3nc4c(-c5cnn(C6CCOCC6)c5)nccn4n3)ccc21 [E148, 3,3-dimethyl-6-{8-[1-(tetrahydro-pyran-4-yl)-1H-pyrazol-4-yl]-[1,2,4]triazolo[1,5-a]pyrazin-2-ylamino}-1,3-dihydro-indol-2-one]
19 | 100 to 300 nM | CC1(C)C(=O)Nc2cc(Nc3nc4c(N5C[C@@H](O)C[C@@H]5c5ccccc5)nccn4n3)ccc21 [E5, 6-[8-((2R,4S)-4-hydroxy-2-phenyl-pyrrolidin-1-yl)-[1,2,4]triazolo[1,5-a]pyrazin-2-ylamino]-3,3-dimethyl-1,3-dihydro-indol-2-one]
20 | 300 to 3000 nM | COCC1CCCN1c1nccn2nc(Nc3ccc4c(c3)NC(=O)C4(C)C)nc12 (stereo not drawn) [E83, 6-[8-(2-methoxymethyl-pyrrolidin-1-yl)-[1,2,4]triazolo[1,5-a]pyrazin-2-ylamino]-3,3-dimethyl-1,3-dihydro-indol-2-one]
21 | < 100 nM | Cn1ncc2cc(-c3nccn4nc(Nc5ccc6c(c5)NC(=O)C6(C)C)nc34)ccc21 [E114]
22 | < 100 nM | CCN(CC)c1nccn2nc(Nc3ccc4c(c3)NC(=O)C4(C)C)nc12 [E92, 6-(8-diethylamino-[1,2,4]triazolo[1,5-a]pyrazin-2-ylamino)-3,3-dimethyl-1,3-dihydro-indol-2-one]

Continued, compound first:

Row | Structure (SMILES) | IC50
23 | CC1(C)C(=O)Nc2cc(Nc3nc4c(-c5cccc6[nH]ncc56)nccn4n3)ccc21 [C90, 6-[8-(1H-indazol-4-yl)-[1,2,4]triazolo[1,5-a]pyrazin-2-ylamino]-3,3-dimethyl-1,3-dihydro-indol-2-one] | < 100 nM
24 | Cn1ncc2ccc(Nc3nc4c(-c5ccccc5-c5ccccc5)nccn4n3)cc21 [C20, (8-Biphenyl-2-yl-[1,2,4]triazolo[1,5-a]pyrazin-2-yl)-(1-methyl-1H-indazol-6-yl)-amine] | 300 to 3000 nM
25 | CC1(C)C(=O)Nc2cc(Nc3nc4c(N5C6CCC5COC6)nccn4n3)ccc21 [C96, 3,3-dimethyl-6-[8-(3-oxa-8-aza-bicyclo[3.2.1 l]oct-8-yl)-[1,2,4]triazolo[1,5-a]pyrazin-2-ylamino]-1,3-dihydro-indol-2-one] | 100 to 300 nM
26 | COc1ccc(Nc2nc3c(-c4ccccc4-c4ccccc4)nccn3n2)cc1 [C1, (8-Biphenyl-2-yl-[1,2,4]triazolo[1,5-a]pyrazin-2-yl)-(4-methoxy-phenyl)-amine] | 3000 to 50000 nM
27 | CC1(C)C(=O)Nc2cc(Nc3nc4c(N[C@H]5C[C@@H](N)C5)nccn4n3)ccc21 [C98, 6-[8-(cis-3-amino-cyclobutylamino)-[1,2,4]triazolo[1,5-a]pyrazin-2-ylamino]-3,3-dimethyl-1,3-dihydro-indol-2-one] | < 100 nM
28 | c1ccc(-c2ccccc2-c2nccn3nc(Nc4ccc5cn[nH]c5c4)nc23)cc1 [C11, (8-Biphenyl-2-yl-[1,2,4]triazolo[1,5-a]pyrazin-2-yl)-(1H-indazol-6-yl)-amine] | 300 to 3000 nM
29 | CC1(C)C(=O)Nc2cc(Nc3nc4c(N5CC6(C5)NC(=O)NC6=O)nccn4n3)ccc21 [C109, 2-[2-(3,3-dimethyl-2-oxo-2,3-dihydro-1H-indol-6-ylamino)-[1,2,4]triazolo[1,5-a]pyrazin-8-yl]-2,5,7-triaza-spiro[3.4]octane-6,8-dione] | 100 to 300 nM
30 | COc1ccccc1Nc1nc2c(-c3ccccc3-c3ccccc3)nccn2n1 [C24, (8-Biphenyl-2-yl-[1,2,4]triazolo[1,5-a]pyrazin-2-yl)-(2-methoxy-phenyl)-amine] | 3000 to 50000 nM
31 | COc1ccc(Nc2nc3c(-c4ccccc4-c4ccccc4)nccn3n2)cc1OC [C5, (8-Biphenyl-2-yl-[1,2,4]triazolo[1,5-a]pyrazin-2-yl)-(3,4-dimethoxy-phenyl)-amine] | 100 to 300 nM
32 | CC1(C)C(=O)Nc2cc(Nc3nc4c(N5CC(O)CC5c5ccccc5)nccn4n3)ccc21 (stereo not drawn) [C79, 6-[8-(4-hydroxy-2-phenyl-pyrrolidin-1-yl)-[1,2,4]triazolo[1,5-a]pyrazin-2-ylamino]-3,3-dimethyl-1,3-dihydro-indol-2-one] | 300 to 3000 nM
33 | N#Cc1ccc(Nc2nc3c(-c4ccccc4-c4ccccc4)nccn3n2)cc1O [C35, 4-(8-Biphenyl-2-yl-[1,2,4]triazolo[1,5-a]pyrazin-2-ylamino)-2-hydroxybenzonitrile] | 3000 to 50000 nM
